Source: ChEMBL document CHEMBL5321197, “Computational, in vitro and radiation-based in vivo studies on acetamide quinazolinone derivatives as new proposed purine nucleoside phosphorylase inhibitors for breast cancer” (Eur J Med Chem, 2023)

Assays:
[1] = test system: MCF7; test: Cytotoxicity against human MCF7 cells assessed as reduction in cell viability incubated for 24 hrs by MTT assay; type: functional, cell-based; conditions: MCF7, 24 h
[2] = target: T1, Purine nucleoside phosphorylase (Homo sapiens, UniProt P00491); test: Inhibition of PNP (unknown origin) by fluorescent based microplate reader analysis
T1 sequence (P00491 whole entry): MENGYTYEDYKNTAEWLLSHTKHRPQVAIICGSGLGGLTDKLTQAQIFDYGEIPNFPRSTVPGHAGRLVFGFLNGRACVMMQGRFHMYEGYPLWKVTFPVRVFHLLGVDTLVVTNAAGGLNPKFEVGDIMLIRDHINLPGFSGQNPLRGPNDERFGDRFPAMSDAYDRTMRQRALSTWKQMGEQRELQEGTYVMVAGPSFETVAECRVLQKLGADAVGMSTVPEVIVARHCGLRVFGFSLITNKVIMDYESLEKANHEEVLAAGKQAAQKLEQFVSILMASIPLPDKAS

[3] = test system: MCF-10A; test: Cytotoxicity against human MCF-10A cells assessed as reduction in cell viability incubated for 24 hrs by MTT assay; type: functional, cell-based
[4] = test system: MDA-MB-468; test: Cytotoxicity against human MDA-MB-468 cells assessed as reduction in cell viability incubated for 24 hrs by MTT assay; type: functional, cell-based; conditions: MDA-MB-468, 24 h
[5] = test system: T47D; test: Cytotoxicity against human T47D cells assessed as reduction in cell viability incubated for 24 hrs by MTT assay; type: functional, cell-based
[6] = test system: Hs-578T; test: cells; type: functional, cell-based; conditions: Homo sapiens, 24 h
Description: Cytotoxicity against human Hs-578T cells assessed as reduction in cell viability incubated for 24 hrs by MTT assay

[7] = test system: BT-549; test: Cytotoxicity against human BT-549 cells assessed as reduction in cell viability incubated for 24 hrs by MTT assay; type: functional, cell-based; conditions: BT-549, 24 h
[8] = test system: MDA-MB-231; test: Cytotoxicity against human MDA-MB-231 cells assessed as reduction in cell viability incubated for 24 hrs by MTT assay; type: functional, cell-based; conditions: MDA-MB-231, 24 h

SMILES: COc1cc(NC(=O)CSc2nc3ccc(C)cc3c(=O)n2-c2ccccc2)cc(OC)c1OC
- IC50 [1]: 158 µM
- IC50 [2]: 3.18 µM

SMILES: COc1cc(NC(=O)CSc2nc3ccc(C)cc3c(=O)n2-c2ccccc2)cc(OC)c1
- IC50 [1]: 8.5 µM
- IC50 [2]: 1.32 µM

SMILES: COc1cc(NC(=O)Cn2c(=S)n(-c3ccccc3)c(=O)c3cc(C)ccc32)cc(OC)c1
- IC50 [1]: 9.87 µM

SMILES: COc1cc(NC(=O)Cn2c(=S)n(-c3ccccc3)c(=O)c3cc(C)ccc32)cc(OC)c1OC
- IC50 [1]: 3.73 µM
- IC50 [2]: 0.255 µM

SMILES: COc1ccc(NC(=O)Cn2c(=S)n(-c3ccccc3)c(=O)c3cc(C)ccc32)cc1OC
- IC50 [1]: 5.16 µM
- IC50 [2]: 0.338 µM

SMILES: Cc1ccc2nc(SCC(=O)NCCc3ccccc3)n(-c3ccccc3)c(=O)c2c1
- IC50 [1]: 104 µM
- IC50 [2]: 1.13 µM

SMILES: CC(=O)c1ccccc1NC(=O)Cn1c(=S)n(-c2ccccc2)c(=O)c2cc(C)ccc21
- IC50 [1]: 87.2 µM
- IC50 [2]: 0.998 µM

SMILES: COc1ccc(NC(=O)CSc2nc3ccc(C)cc3c(=O)n2-c2ccccc2)cc1OC
- IC50 [1]: 383 µM
- IC50 [2]: 5.63 µM

SMILES: CCOC(=O)c1ccccc1NC(=O)CSc1nc2ccc(C)cc2c(=O)n1-c1ccccc1
- IC50 [1]: 926 µM
- IC50 [2]: 2.12 µM

SMILES: CCOC(=O)c1ccccc1NC(=O)Cn1c(=S)n(-c2ccccc2)c(=O)c2cc(C)ccc21
- IC50 [3]: 67.3 µM
- IC50 [1]: 0.99 µM
- IC50 [4]: 5.83 µM
- IC50 [5]: 4.54 µM
- IC50 [2]: 0.159 µM
- IC50 [6]: 22.3 µM
- IC50 [7]: 6.84 µM
- IC50 [8]: 6.01 µM

SMILES: Cc1ccc2c(c1)c(=O)n(-c1ccccc1)c(=S)n2CC(=O)NCCc1ccccc1
- IC50 [1]: 48.1 µM
- IC50 [2]: 0.442 µM

SMILES: CCOC(=O)N1CCC(NC(=O)Cn2c(=S)n(-c3ccccc3)c(=O)c3cc(C)ccc32)CC1
- IC50 [1]: 1.77 µM
- IC50 [2]: 0.173 µM

SMILES: CCOC(=O)N1CCC(NC(=O)CSc2nc3ccc(C)cc3c(=O)n2-c2ccccc2)CC1
- IC50 [1]: 31 µM
- IC50 [2]: 1.88 µM

SMILES: CC(=O)c1ccccc1NC(=O)CSc1nc2ccc(C)cc2c(=O)n1-c1ccccc1
- IC50 [1]: 278 µM
- IC50 [2]: 3.35 µM

SMILES: COc1cc2ncnc(Nc3ccc(F)c(Cl)c3)c2cc1OCCCN1CCOCC1 [GEFITINIB]
- IC50 [5]: 3.47 µM

SMILES: Nc1nc2c(Cc3cccnc3)c[nH]c2c(=O)[nH]1 [PELDESINE]
- IC50 [2]: 0.041 µM
